The record followed here is US5100892A, “Dihydropyridine vasodilator agents” (Glaxo Inc., priority 1990, dated 1992).

Assay [1] relates to Spontaneously Hypertensive Rats. The assay is described as follows: Spontaneously Hypertensive Rat (SHR) Test, hemodynamics in anesthetized rats. It is filed as in vivo, Spontaneously Hypertensive Rat (Sprague Dawley). The settings on record: for HR (Heart Rate: change from basal) / LVPT (time for Left Ventricular Pressure to decay from peak to 50%, % of basal) / MBP (Mean Blood Pressure: change from basal) / RT64 (change in time from maximal relaxation, % of basal) / dP/dT40 (change in rate of systolic pressure increase of left ventricle measured at 40 mm Hg from basal): anesthetized SHR; for effect on blood pressure (in words) / effect on dP/dT40 (in words) / effect on heart rate (in words) / effect on myocardial relaxation time constants (in words): SHR. The procedure: Male Retired Breeder Spontaneously Hypertensive Rats (SHR) (Sprague Dawley, 250-350 g) are anesthetized by i.p. injection of Sodium Thiopental 50 mg/kg. A catheter is inserted into the duodenum for maintenance of anesthesia throughout the experiment. A tube is inserted through a lateral incision in the trachea. The left carotid artery is exposed and a Millar SPR-249 (2-F) pressure probe is inserted and passed into the left ventricle of the heart. Left ventricular pressure (LVP), the first differential of the LVP (+dP/dT,-dP/dT), the left ventricular end diastolic pressure (LVEDP) and the differential of the increase in LVP measured at a constant pressure of 40 mm Hg (dP/dT40) are measured via this probe. In addition to these parameters, two indices of myocardial diastolic relaxation are measured namely the RT64 (time in msec from the peak derivative of maximal relaxation to 64% of that value) and the Left Ventricular Pressure Time Constant (LVPT), the half-time for decay of the LVP from peak pressure to 50% of that pressure. […] Results also are shown graphically on a Gould RS3800 Recorder. A saline filled cannula is passed into the femoral vein for infusion of drugs and one is placed into the femoral artery for measurement and recording or arterial blood pressure (Statham P23Db pressure transducer). From this signal the diastolic, systolic and mean blood pressure are derived as well as the heart rate. After surgery, the preparation is left to stabilize for 45 minutes after which compounds, dissolved in polyethylene glycol, are slowly infused with a Sage Instruments Infusion pump into the femoral vein. […] After completion of the last infusion, hemodynamic parameters are observed over 30 min and then a standard dose of 3.0 mg/kg milrinone is infused (over 5 min) to test preparation responsiveness. In the SHR, the following results were obtained for several known cardiovascular agents and for the compound of Examples 10,11,15 and 16.

The subject of the next assay is rat aorta. Briefly: Rat Aorta Protocol: relaxation of phenylephrine-contracted rings of rat aorta (endothelium removed). On the procedure:
Rings of rat aorta (endothelium removed) were prepared for the measurement of isometric force in isolated tissue organ chambers essentially as previously described by T. J. Rimele et al in the Journal of Pharmacol. Exp. Ther. 245:102-111 (1988). The experimental portion of the protocol began with the addition of methylene blue (1×10^-5 M) and propranolol (1×10^-6 M) to each organ chamber to inhibit basal cGMP accumulation due to soluble guanylate cyclase and beta-adrenoceptors.Phenylephrine (1×10^-7 M) was then added and the rings were allowed to obtain a stable contractile response after which time, the test compound was added in a cumulative fashion. The relaxation induced by each concentration of the test compound was expressed as a percentage of the maximal relaxation produced by nitroprusside (1×10^-4 M) The results were graphically represented as a plot of the percentage relaxation vs. the negative log of the molar concentration of the test compound. The IC50 (concentration of test compound which produced a relaxation equivalent to 50% of the maximal relaxation induced by nitroprusside) was determined for each tissue.

Molecules are shown by their SMILES.

Turning to `COC(=O)C1=C(C)NC(C)=C(C(=O)OCCNC(=O)COc2ccc(-c3cc(C#N)c(=O)[nH]c3C)cc2)C1c1cccc([N+](=O)[O-])c1` (racemic) [Example 10, (±)-2,6-dimethyl-3-carbomethoxy-4-(3-nitrophenyl)-5-{4-[1,2-dihydro-2-oxo-3-cyano-6-methyl-5(1H)-pyridy]phenoxymethylenecarboxyamidoethyloxycarbonyl}-1,4-dihydropyridine], in assay [1] (0.3 mg/kg i.v.), the “HR (Heart Rate: change from basal)” value was -1.8%; the “LVPT (time for Left Ventricular Pressure to decay from peak to 50%, % of basal)” value is on record as -5.1%; the “MBP (Mean Blood Pressure: change from basal)” value was -2.6%; the “RT64 (change in time from maximal relaxation, % of basal)” value is reported as -2.6%. Further, the “dP/dT40 (change in rate of systolic pressure increase of left ventricle measured at 40 mm Hg from basal)” value in assay [1] (0.3 mg/kg i.v.) is 0%. In addition, in assay [1] (1.0 mg/kg i.v.), the “HR (Heart Rate: change from basal)” value was -2.5%; the “LVPT (time for Left Ventricular Pressure to decay from peak to 50%, % of basal)” value is -7.4%; the “MBP (Mean Blood Pressure: change from basal)” value is reported as -3.8%; the “RT64 (change in time from maximal relaxation, % of basal)” value is -5.2%. Also, the “dP/dT40 (change in rate of systolic pressure increase of left ventricle measured at 40 mm Hg from basal)” value in assay [1] (1.0 mg/kg i.v.) amounted to 1.5%. Also, in assay [1] (3.0 mg/kg i.v.), the “HR (Heart Rate: change from basal)” value is given as 1.1%; the “LVPT (time for Left Ventricular Pressure to decay from peak to 50%, % of basal)” value was -14%; the “MBP (Mean Blood Pressure: change from basal)” value was -6.3%; the “RT64 (change in time from maximal relaxation, % of basal)” value is reported as -13.2%. In assay [1] (3.0 mg/kg i.v.), the “dP/dT40 (change in rate of systolic pressure increase of left ventricle measured at 40 mm Hg from basal)” value was determined as 4.2%. In assay [1] (10 mg/kg i.v.), the “HR (Heart Rate: change from basal)” value was found to be 6.4%; the “LVPT (time for Left Ventricular Pressure to decay from peak to 50%, % of basal)” value is -25%; the “MBP (Mean Blood Pressure: change from basal)” value is on record as -23%; the “RT64 (change in time from maximal relaxation, % of basal)” value is on record as -19.3%. The “dP/dT40 (change in rate of systolic pressure increase of left ventricle measured at 40 mm Hg from basal)” value in assay [1] (10 mg/kg i.v.) amounted to 24.7%. In addition, in assay [1] (0.3 to 10 mg/kg i.v.), the “effect on blood pressure (in words)” value is “hypotension”, the “effect on dP/dT40 (in words)” value was “an increase in dP/dT40”, the “effect on heart rate (in words)” value is reported as “little change in heart rate” and the “effect on myocardial relaxation time constants (in words)” value is “reduction in the time constants for myocardial relaxation”. For the same compound, the Emax at 100 µM in the assay with rat aorta (highest dose tested (100 micromolar), read-out: maximal response (relaxation, % of maximal relaxation by nitroprusside)) was determined as 96%. Also, the IC50 in the assay on rat aorta (phenylephrine 1×10^-7 M contracted, methylene blue and propranolol present, read-out: IC50 (concentration producing relaxation equivalent to 50% of the maximal relaxation induced by nitroprusside)) turned out to be 2100 nM.

For the compound `NNc1nncc2ccccc12` [Hydralazine], in assay [1] (0.3 mg/kg i.v.), the “HR (Heart Rate: change from basal)” value was determined as 0%; the “LVPT (time for Left Ventricular Pressure to decay from peak to 50%, % of basal)” value amounted to 4.1%; the “MBP (Mean Blood Pressure: change from basal)” value was -1.2%; the “RT64 (change in time from maximal relaxation, % of basal)” value was 2%. Besides, the “dP/dT40 (change in rate of systolic pressure increase of left ventricle measured at 40 mm Hg from basal)” value in assay [1] (0.3 mg/kg i.v.) is reported as 0%. In assay [1] (1.0 mg/kg i.v.), the “HR (Heart Rate: change from basal)” value came to 8%; the “LVPT (time for Left Ventricular Pressure to decay from peak to 50%, % of basal)” value was 2.3%; the “MBP (Mean Blood Pressure: change from basal)” value is listed as -17.8%; the “RT64 (change in time from maximal relaxation, % of basal)” value is 0%. In addition, the “dP/dT40 (change in rate of systolic pressure increase of left ventricle measured at 40 mm Hg from basal)” value in assay [1] (1.0 mg/kg i.v.) was 3.4%. Moreover, in assay [1] (3.0 mg/kg i.v.), the “HR (Heart Rate: change from basal)” value was found to be 8.8%; the “LVPT (time for Left Ventricular Pressure to decay from peak to 50%, % of basal)” value is recorded as -7.8%; the “MBP (Mean Blood Pressure: change from basal)” value was -37.5%; the “RT64 (change in time from maximal relaxation, % of basal)” value is -12.5%. Further, in assay [1] (3.0 mg/kg i.v.), the “dP/dT40 (change in rate of systolic pressure increase of left ventricle measured at 40 mm Hg from basal)” value was determined as 0%. In addition, in assay [1] (10 mg/kg i.v.), the “HR (Heart Rate: change from basal)” value is given as 17%; the “LVPT (time for Left Ventricular Pressure to decay from peak to 50%, % of basal)” value is given as -21.9%; the “MBP (Mean Blood Pressure: change from basal)” value is -48%; the “RT64 (change in time from maximal relaxation, % of basal)” value was -22.6%. Moreover, the “dP/dT40 (change in rate of systolic pressure increase of left ventricle measured at 40 mm Hg from basal)” value in assay [1] (10 mg/kg i.v.) worked out at 6.9%. In assay [1] (0.3 to 10 mg/kg i.v.), the “effect on blood pressure (in words)” value is reported as “hypotension”; the “effect on dP/dT40 (in words)” value is reported as “little change in dP/dT40”; the “effect on heart rate (in words)” value is given as “reflex tachycardia”; the “effect on myocardial relaxation time constants (in words)” value was “reduction in myocardial relaxation time constants only at 3 and 10 mg/kg”.

Consider `Cc1[nH]c(=O)c(C#N)cc1-c1ccncc1` [Milrinone], for which, in assay [1] (0.3 mg/kg i.v.), the “HR (Heart Rate: change from basal)” value was found to be 10%; the “LVPT (time for Left Ventricular Pressure to decay from peak to 50%, % of basal)” value is given as -15.5%; the “MBP (Mean Blood Pressure: change from basal)” value is -10%; the “RT64 (change in time from maximal relaxation, % of basal)” value is on record as -13.7%. Besides, the “dP/dT40 (change in rate of systolic pressure increase of left ventricle measured at 40 mm Hg from basal)” value in assay [1] (0.3 mg/kg i.v.) worked out at 27%. Also, in assay [1] (1.0 mg/kg i.v.), the “HR (Heart Rate: change from basal)” value stood at 12.4%; the “LVPT (time for Left Ventricular Pressure to decay from peak to 50%, % of basal)” value is listed as -22%; the “MBP (Mean Blood Pressure: change from basal)” value is -29%; the “RT64 (change in time from maximal relaxation, % of basal)” value was -20.5%. The “dP/dT40 (change in rate of systolic pressure increase of left ventricle measured at 40 mm Hg from basal)” value in assay [1] (1.0 mg/kg i.v.) came out at 28.3%. In assay [1] (3.0 mg/kg i.v.), the “HR (Heart Rate: change from basal)” value amounted to 16.2%; the “LVPT (time for Left Ventricular Pressure to decay from peak to 50%, % of basal)” value is on record as -30%; the “MBP (Mean Blood Pressure: change from basal)” value was -29%; the “RT64 (change in time from maximal relaxation, % of basal)” value was -36%. Also, the “dP/dT40 (change in rate of systolic pressure increase of left ventricle measured at 40 mm Hg from basal)” value in assay [1] (3.0 mg/kg i.v.) was 34%. For the same compound, in assay [1] (0.3 to 3 mg/kg i.v.), the “effect on blood pressure (in words)” value was “hypotension”, the “effect on dP/dT40 (in words)” value is “an increase in dP/dT40”, the “effect on heart rate (in words)” value is “tachycardia” and the “effect on myocardial relaxation time constants (in words)” value is listed as “a decrease in myocardial relaxation time constants (increased rate of relaxation)”.

Regarding `COC(=O)C1=C(C)NC(C)=C(C(=O)OC)C1c1ccccc1[N+](=O)[O-]` [Nifedipine], in assay [1] (0.1 mg/kg i.v.), the “HR (Heart Rate: change from basal)” value worked out at 3%; the “LVPT (time for Left Ventricular Pressure to decay from peak to 50%, % of basal)” value is on record as -8%; the “MBP (Mean Blood Pressure: change from basal)” value is -12%; the “RT64 (change in time from maximal relaxation, % of basal)” value is listed as -7%. In assay [1] (0.1 mg/kg i.v.), the “dP/dT40 (change in rate of systolic pressure increase of left ventricle measured at 40 mm Hg from basal)” value was determined as 7.5%. For the same compound, in assay [1] (0.3 mg/kg i.v.), the “HR (Heart Rate: change from basal)” value is listed as 1%; the “LVPT (time for Left Ventricular Pressure to decay from peak to 50%, % of basal)” value is 3%; the “MBP (Mean Blood Pressure: change from basal)” value was -30%; the “RT64 (change in time from maximal relaxation, % of basal)” value is -7%. Also, the “dP/dT40 (change in rate of systolic pressure increase of left ventricle measured at 40 mm Hg from basal)” value in assay [1] (0.3 mg/kg i.v.) is reported as 2%. In addition, in assay [1] (1.0 mg/kg i.v.), the “HR (Heart Rate: change from basal)” value was -5%; the “LVPT (time for Left Ventricular Pressure to decay from peak to 50%, % of basal)” value was -7%; the “MBP (Mean Blood Pressure: change from basal)” value is reported as -47.5%; the “RT64 (change in time from maximal relaxation, % of basal)” value is -21%. The “dP/dT40 (change in rate of systolic pressure increase of left ventricle measured at 40 mm Hg from basal)” value in assay [1] (1.0 mg/kg i.v.) is listed as -15.5%. Also, in assay [1] (3.0 mg/kg i.v.), the “HR (Heart Rate: change from basal)” value was -7.5%; the “LVPT (time for Left Ventricular Pressure to decay from peak to 50%, % of basal)” value was -18.5%; the “MBP (Mean Blood Pressure: change from basal)” value was -47.5%; the “RT64 (change in time from maximal relaxation, % of basal)” value is -25%. Also, the “dP/dT40 (change in rate of systolic pressure increase of left ventricle measured at 40 mm Hg from basal)” value in assay [1] (3.0 mg/kg i.v.) is recorded as -28.8%. In addition, in assay [1] (0.1 to 3 mg/kg i.v.), the “effect on blood pressure (in words)” value is given as “hypotension”, the “effect on dP/dT40 (in words)” value is listed as “a depression of dP/dT40”, the “effect on heart rate (in words)” value is listed as “little change in heart rate” and the “effect on myocardial relaxation time constants (in words)” value is “significant reduction of myocardial relaxation time constants only at the highest dose tested (3 mg/kg)”.
